Reference: patent publication US8546376B2, “Pharmaceutical compounds” (Almac Discovery Limited, priority 2009, dated 2013)
Counter-ions that a name gives are not always drawn.

Legend:
Type in all cases: biochemical
[1] = molecular target: T1, AKT1 (Homo sapiens, UniProt P31749); assay: AKT Kinase Assay (IMAP fluorescent polarisation) vs AKT1; conditions: activated AKT1, FAM Crosstide substrate
T1 construct: purchased SignalChem
Procedure: (§1) Testing of the compounds was performed using an AKT Kinase Assay:
(§2) Activated AKT isoforms 1, 2 and 3 were assayed utilising a 5′ FAM Crosstide (Seq. GRPRTSSFAEG-OH). The extent of kinase phosphorylation was determined by fluorescent polarisation using IMAP progressive binding reagent, which introduces binding beads which allow the reagent to specifically bind to phosphate residues via covalent co-ordination complex bonds.
(§3) iMAP binding solution stops Crosstide/kinase interaction and specifically binds phosphorylated substrates. The degree of phosphorylation is determined by fluorescent polarisation (excitation 485 nm; emission 528 nm) or the reduction in speed of rotation of the excited substrate.
(§4) The following materials were used in the assay: • a) Activated AKT isoforms (SignalChem.) dissolved in Complete Reaction buffer at a pre-determined concentration selected so that the assay was carried out in the linear range. • b) AKT substrate peptide: FAM Crosstide (R7110) Molecular Devices, diluted in complete reaction buffer. • c) iMAP Progressive Screening Express Kit (R8127) Molecular Devices • d) Complete Reaction Buffer containing 0.1% BSA, 10 mM Tris-HCl, 10 mM MgCl2, 0.05% NaN3 and 0.01% phosphate free BSA, 1 mM DTT • e) Progressive Binding Solution containing 75% Buffer A, 25% Buffer B and low volume Binding Reagent which contains the binding entity for the assay • f) ATP diluted in complete reaction buffer • g) Black polystyrene 384 well assay plates (Nunc). • h) Biotek Synergy 4 Hybrid Plate reader.
(§5) 5 μl of test compound was dissolved in DMSO (Sigma Aldrich) and serially diluted in complete reaction buffer to give a fourteen point half log dose response and plated into 384 well black plates. The compound was incubated at room temperature with activated AKT isoform (5 μl) at the pre-determined concentration, for 45 minutes.
(§6) 2.5 μl of ATP solution mixed with 2.5 μl of AKT substrate peptide (FAM Crosstide (R7110) Molecular Devices) were dispensed into each well and the plate centrifuged at 1000 rpm for 20 seconds to ensure homogenous mixing of reagents. The reaction mix was incubated in the dark for one hour at room temperature.
(§7) The kinase reaction was stopped by the addition of Progressive Binding Solution and the mixture allowed to equilibrate for one hour in the dark, at room temperature.
(§8) The fluorescent polarisation generated in each well was determined using a […] Synergy 4 Hybrid plate reader. In brief, each reaction solution was excited at 485 nm with the emission measured at 528 nm in both the parallel and perpendicular pathway.
(§9) The polarisation value generated in each well was calculated by Gen5 software (Biotek) and the % inhibition of kinase activity compared to vehicle control was calculated via GraphPad Prism. IC50 values for each compound were calculated by non-linear regression analysis using Prism software.
(§10) All plates were internally controlled by two methods. Firstly, by calculating the signal:noise ratio; based on kinase polarisation without inhibitor and polarisation generated by complete reaction buffer in the absence of activated kinase. Secondly by determining IC50 values generated by known inhibitors of the AKT isoforms.

[2] = molecular target: T2, AKT2 (Homo sapiens, UniProt P31751); assay: AKT Kinase Assay (IMAP fluorescent polarisation) vs AKT2; conditions: activated AKT2, FAM Crosstide substrate
T2 construct: purchased SignalChem
Procedure: as §1, §2, §3, §4, §5, §6, §7, §8, §9, §10

[3] = molecular target: T3, AKT3 (Homo sapiens, UniProt Q9Y243); assay: AKT Kinase Assay (IMAP fluorescent polarisation) vs AKT3; conditions: activated AKT3, FAM Crosstide substrate
T3 construct: purchased SignalChem
Procedure: as §1, §2, §3, §4, §5, §6, §7, §8, §9, §10

T3 sequence (Q9Y243 whole entry): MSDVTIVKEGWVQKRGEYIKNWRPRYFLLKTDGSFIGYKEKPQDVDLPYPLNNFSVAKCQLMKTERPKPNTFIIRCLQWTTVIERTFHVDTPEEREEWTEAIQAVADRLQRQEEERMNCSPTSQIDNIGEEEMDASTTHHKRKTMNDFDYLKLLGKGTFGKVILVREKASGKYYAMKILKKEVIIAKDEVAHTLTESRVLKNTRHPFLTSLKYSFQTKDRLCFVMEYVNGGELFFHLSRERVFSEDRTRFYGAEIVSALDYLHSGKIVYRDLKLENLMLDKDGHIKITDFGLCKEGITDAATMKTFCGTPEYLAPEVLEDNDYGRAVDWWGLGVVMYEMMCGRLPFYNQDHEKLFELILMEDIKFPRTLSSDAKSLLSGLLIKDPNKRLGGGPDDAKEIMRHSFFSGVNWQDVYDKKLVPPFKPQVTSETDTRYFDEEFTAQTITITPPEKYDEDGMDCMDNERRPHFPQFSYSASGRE
T1 sequence (P31749 whole entry): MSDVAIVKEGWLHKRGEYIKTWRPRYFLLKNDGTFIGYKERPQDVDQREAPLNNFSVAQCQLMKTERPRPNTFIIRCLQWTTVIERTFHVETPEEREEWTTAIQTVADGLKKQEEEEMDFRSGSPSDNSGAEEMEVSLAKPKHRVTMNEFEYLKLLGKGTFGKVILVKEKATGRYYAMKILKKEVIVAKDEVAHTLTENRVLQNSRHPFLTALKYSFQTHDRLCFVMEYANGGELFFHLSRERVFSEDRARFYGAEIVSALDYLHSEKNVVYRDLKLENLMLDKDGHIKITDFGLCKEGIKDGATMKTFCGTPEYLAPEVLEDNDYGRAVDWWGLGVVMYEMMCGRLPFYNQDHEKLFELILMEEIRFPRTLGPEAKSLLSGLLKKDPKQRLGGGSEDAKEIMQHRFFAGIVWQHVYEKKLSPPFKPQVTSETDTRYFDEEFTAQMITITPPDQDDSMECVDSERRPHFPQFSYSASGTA
T2 sequence (P31751 whole entry): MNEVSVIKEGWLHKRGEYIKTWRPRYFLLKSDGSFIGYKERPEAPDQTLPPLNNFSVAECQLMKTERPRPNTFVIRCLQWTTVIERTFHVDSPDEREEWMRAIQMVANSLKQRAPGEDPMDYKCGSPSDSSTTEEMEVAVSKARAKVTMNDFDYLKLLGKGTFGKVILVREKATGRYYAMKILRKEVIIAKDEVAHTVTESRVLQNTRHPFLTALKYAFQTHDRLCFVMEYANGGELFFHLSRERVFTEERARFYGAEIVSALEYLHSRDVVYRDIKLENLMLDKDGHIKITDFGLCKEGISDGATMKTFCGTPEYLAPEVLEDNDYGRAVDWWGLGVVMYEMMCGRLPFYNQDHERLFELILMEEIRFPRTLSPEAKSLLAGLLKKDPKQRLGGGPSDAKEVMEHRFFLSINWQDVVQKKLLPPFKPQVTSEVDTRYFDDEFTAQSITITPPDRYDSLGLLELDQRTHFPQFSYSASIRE

| Structure (SMILES) | IC50 [1] [µM] | IC50 [2] [µM] | IC50 [3] [µM] |
| --- | --- | --- | --- |
| Nc1ccc2c(=O)c(-c3ccc(C4(N)CCC4)cc3)c(-c3ccccc3)oc2c1 [Example 47, 7-Amino-3-[4-(1-amino-cyclobutyl)-phenyl]-2-phenyl-1-benzopyran-4-one.TFA] | 1 to 10 | 1 to 10 | > 10 |
| NC1(c2ccc(C3=C(c4ccccc4)c4ccccc4C3=O)cc2)CCC1 [Example 48, 2-(4-(1-aminocyclobutyl)phenyl)-3-phenyl-1H-inden-1-one hydrochloride] | 1 to 10 | 1 to 10 | 1 to 10 |
| Nc1cc2oc(-c3ccccc3)c(-c3ccc(C4(N)CCC4)cc3)c(=O)c2cc1Br [Example 49, 7-Amino-3-[4-(1-amino-cyclobutyl)-phenyl]-6-bromo-2-phenyl-chromen-4-one. TFA] | ≤ 1 | > 10 | > 10 |
| COc1ccc2c(=O)c(-c3ccc(C4(N)CCC4)cc3)c(-c3ccccc3)oc2c1C(N)=O [Example 50, 3-[4-(1-Amino-cyclobutyl)-phenyl]-7-methoxy-4-oxo-2-phenyl-4H-chromene-8-carboxylic acid amide hydrochloride] | ≤ 1 | 1 to 10 | 1 to 10 |
| NC1(c2ccc(-c3c(-c4ccccc4)oc4c(Br)cccc4c3=O)cc2)CCC1 [Example 51, 3-[4-(1-Amino-cyclobutyl)-phenyl]-8-bromo-2-phenyl-chromen-4-one] | ≤ 1 | ≤ 1 | ≤ 1 |
| NC1(c2ccc(-c3c(-c4ccccc4)oc4c(-c5cn[nH]c5)cccc4c3=O)cc2)CCC1 [Example 52, 3-[4-(1-Amino-cyclobutyl)-phenyl]-2-phenyl-8-(1H-pyrazol-4-yl)-chromen-4-one hydrochloride] | ≤ 1 | ≤ 1 | ≤ 1 |
| NC1(c2ccc(-c3c(-c4ccccc4)oc4c(-c5cc[nH]n5)cccc4c3=O)cc2)CCC1 [Example 53, 3-[4-(1-Amino-cyclobutyl)-phenyl]-2-phenyl-8-(1H-pyrazol-3-14)-chromen-4-one hydrochloride] | ≤ 1 | ≤ 1 | 1 to 10 |
| NC1(c2ccc(-c3c(-c4ccccc4)oc4c(C5CC5)cccc4c3=O)cc2)CCC1 [Example 54, 3-[4-(1-Amino-cyclobutyl)-phenyl]-8-cyclopropyl-2-phenyl-chromen-4-one hydrochloride] | ≤ 1 | ≤ 1 | 1 to 10 |
| Cn1cc(-c2cccc3c(=O)c(-c4ccc(C5(N)CCC5)cc4)c(-c4ccccc4)oc23)cn1 [Example 55, 3-[4-(1-Amino-cyclobutyl)-phenyl]-8-(1-methyl-1H-pyrazol-4-yl)-2-phenyl-chromen-4-one hydrochloride] | ≤ 1 | ≤ 1 | 1 to 10 |
| NC1(c2ccc(-c3c(-c4ccccc4)oc4c(-c5cccnc5)cccc4c3=O)cc2)CCC1 [Example 56, 3-[4-(1-Amino-cyclobutyl)-phenyl]-2-phenyl-8-pyridin-3-yl-chromen-4-one] | ≤ 1 | ≤ 1 | 1 to 10 |
| NC1(c2ccc(-c3c(-c4ccccc4)oc4c(ccc5cn[nH]c54)c3=O)cc2)CCC1 [Example 57, 7-[4-(1-Amino-cyclobutyl)-phenyl]-8-phenyl-1H-9-oxa-1,2-diaza-cyclopenta[a]naphthalen-6-one] | ≤ 1 | ≤ 1 | 1 to 10 |

Results, then the compound that gave them:

| IC50 [1] [µM] | IC50 [2] [µM] | IC50 [3] [µM] | Structure (SMILES) |
| --- | --- | --- | --- |
| ≤ 1 | ≤ 1 | 1 to 10 | Cn1ncc2ccc3c(=O)c(-c4ccc(C5(N)CCC5)cc4)c(-c4ccccc4)oc3c21 [Example 58, 7-[4-(1-Amino-cyclobutyl)-phenyl]-1-methyl-8-phenyl-1H-9-oxa-1,2-diaza-cyclopenta[a]naphthalen-6-one] |
| ≤ 1 | ≤ 1 | 1 to 10 | Cn1cc2ccc3c(=O)c(-c4ccc(C5(N)CCC5)cc4)c(-c4ccccc4)oc3c2n1 [Example 59, 7-[4-(1-Amino-cyclobutyl)-phenyl]-2-methyl-8-phenyl-2H-9-oxa-1,2-diaza-cyclopenta[a]naphthalen-6-one] |
| ≤ 1 | ≤ 1 | 1 to 10 | Cn1ncc2c3oc(-c4ccccc4)c(-c4ccc(C5(N)CCC5)cc4)c(=O)c3ccc21 [Example 60, 3-[4-(1-Amino-cyclobutyl)-phenyl]-7-methyl-2-phenyl-7H-pyrano[2,3-e]indazol-4-one] |
| ≤ 1 | ≤ 1 | 1 to 10 | Cn1cc2c(ccc3c(=O)c(-c4ccc(C5(N)CCC5)cc4)c(-c4ccccc4)oc32)n1 [Example 61, 3-[4-(1-Amino-cyclobutyl)-phenyl]-8-methyl-2-phenyl-8H-pyrano[2,3-e]indazol-4-one] |
| ≤ 1 | ≤ 1 | ≤ 1 | Cn1cnc2c3oc(-c4ccccc4)c(-c4ccc(C5(N)CCC5)cc4)c(=O)c3cc(Cl)c21 [Example 62, 7-[4-(1-Amino-cyclobutyl)-phenyl]-4-chloro-3-methyl-8-phenyl-3H-chromeno[7,8-d]imidazol-6-one hydrochloride] |
| ≤ 1 | ≤ 1 | ≤ 1 | NC1(c2ccc(-c3c(-c4ccccc4)oc4c(ccn5c(=O)[nH]nc45)c3=O)cc2)CCC1 [Example 63, 7-[4-(1-Amino-cyclobutyl)-phenyl]-8-phenyl-2H-9-oxa-1,2,3a-triaza-cyclopenta[a]naphthalene-3,6-dione hydrochloride] |
| ≤ 1 | ≤ 1 | ≤ 1 | Cn1nc2c3oc(-c4ccccc4)c(-c4ccc(C5(N)CCC5)cc4)c(=O)c3ccn2c1=O [Example 64, 7-[4-(1-Amino-cyclobutyl)-phenyl]-2-methyl-8-phenyl-2H-9-oxa-1,2,3a-triaza-cyclopenta[a]naphthalene-3,6-dione hydrochloride] |
| 1 to 10 | 1 to 10 | 1 to 10 | NC1(c2ccc(-c3c(-c4ccccc4)oc4ccccc4c3=S)cc2)CCC1 [Example 65, 3-[4-(1-Amino-cyclobutyl)-phenyl]-2-phenyl-chromene-4-thione hydrochloride] |
| ≤ 1 | 1 to 10 | > 10 | CON=c1c(-c2ccc(C3(N)CCC3)cc2)c(-c2ccccc2)oc2ccccc12 [Example 66, 3-[4-(1-Amino-cyclobutyl)-phenyl]-2-phenyl-chromen-4-one O-methyl-oxime] |
| ≤ 1 | > 10 | > 10 | NC1(c2ccc(-c3c(-c4ccccc4)oc4c(Br)cccc4c3=O)cc2)COC1 [Example 67, 3-[4-(3-Amino-oxetan-3-yl)-phenyl]-8-bromo-2-phenyl-chromen-4-one] |
| ≤ 1 | 1 to 10 | > 10 | NC1(c2ccc(-c3c(-c4ccccc4)oc4c(ccn5c(=O)[nH]nc45)c3=O)cc2)COC1 [Example 68, 7-[4-(3-Amino-oxetan-3-yl)-phenyl]-8-phenyl-2H-9-oxa-1,2,3a-triaza-cyclopenta[a]naphthalene-3,6-dione] |
| ≤ 1 | 1 to 10 | > 10 | NC1(c2ccc(-c3c(-c4ccccc4)oc4c(ccn5c(=O)[nH]nc45)c3=O)cn2)CCC1 [Example 69, 7-[6-(1-Amino-cyclobutyl)-pyridin-3-yl]-8-phenyl-2H-9-oxa-1,2,3a-triaza-cyclopenta[a]naphthalene-3,6-dione] |
| ≤ 1 | > 10 | > 10 | CC(C)(C#N)c1ccc(-c2c(-c3ccccc3)oc3c(ccn4c(=O)[nH]nc34)c2=O)cc1 [Example 70, 2-[4-(3,6-Dioxo-8-phenyl-2,6-dihydro-3H-9-oxa-1,2,3a-triaza-cyclopenta[a]naphthalen-7-yl)-phenyl]-2-methyl-propionitrile] |
| ≤ 1 | > 10 | > 10 | Cn1ncc2ccc3c(=O)c(-c4ccc(C5(N)CCC5)nc4)c(-c4ccccc4)oc3c21 [Example 71, 7-[6-(1-Amino-cyclobutyl)-pyridin-3-yl]-1-methyl-8-phenyl-1H-9-oxa-1,2-diaza-cyclopenta[a]naphthalen-6-one hydrochloride] |
